Assay results published in ChEMBL document CHEMBL1149525, “Synthesis and evaluation of anilinohexafluoroisopropanols as activators/modulators of LXRalpha and beta” (Bioorg Med Chem Lett, 2006).

Legend:
[1] = target: T1, Oxysterols receptor LXR-alpha (Homo sapiens, UniProt Q13133)
T1 sequence (Q13133 whole entry): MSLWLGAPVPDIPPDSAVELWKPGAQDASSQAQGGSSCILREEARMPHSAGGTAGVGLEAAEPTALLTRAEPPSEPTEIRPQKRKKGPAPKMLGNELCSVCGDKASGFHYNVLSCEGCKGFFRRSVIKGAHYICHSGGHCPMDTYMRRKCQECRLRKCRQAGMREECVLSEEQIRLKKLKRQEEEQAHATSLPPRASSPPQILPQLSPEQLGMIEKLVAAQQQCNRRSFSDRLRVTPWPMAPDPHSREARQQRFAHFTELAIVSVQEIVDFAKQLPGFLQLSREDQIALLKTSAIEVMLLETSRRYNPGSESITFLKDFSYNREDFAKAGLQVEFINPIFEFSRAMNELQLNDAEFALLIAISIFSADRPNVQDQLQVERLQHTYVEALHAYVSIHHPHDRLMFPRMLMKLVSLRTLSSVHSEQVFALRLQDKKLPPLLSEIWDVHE

[2] = target: T1, Oxysterols receptor LXR-alpha; remark: listed apart in the source
[3] = Liver concentration in C57BL/6J mouse after 5 days at 100 mg/kg/day; type: ADME, organism-based; settings: read-out: Drug uptake
Mus musculus [4] = test: Increase in plasma HDL-C level in C57BL/6J mouse after 5 days at 100 mg/kg/day relative to control; type: functional
Mus musculus [5] = test: Increase in plasma triglyceride level in C57BL/6J mouse after 5 days at 100 mg/kg/day relative to control; type: functional
[6] = Plasma concentration in C57BL/6J mouse after 5 days at 100 mg/kg/day; type: ADME, organism-based
[7] = target: T2, Oxysterols receptor LXR-beta (Homo sapiens, UniProt P55055)
T2 sequence (P55055 whole entry): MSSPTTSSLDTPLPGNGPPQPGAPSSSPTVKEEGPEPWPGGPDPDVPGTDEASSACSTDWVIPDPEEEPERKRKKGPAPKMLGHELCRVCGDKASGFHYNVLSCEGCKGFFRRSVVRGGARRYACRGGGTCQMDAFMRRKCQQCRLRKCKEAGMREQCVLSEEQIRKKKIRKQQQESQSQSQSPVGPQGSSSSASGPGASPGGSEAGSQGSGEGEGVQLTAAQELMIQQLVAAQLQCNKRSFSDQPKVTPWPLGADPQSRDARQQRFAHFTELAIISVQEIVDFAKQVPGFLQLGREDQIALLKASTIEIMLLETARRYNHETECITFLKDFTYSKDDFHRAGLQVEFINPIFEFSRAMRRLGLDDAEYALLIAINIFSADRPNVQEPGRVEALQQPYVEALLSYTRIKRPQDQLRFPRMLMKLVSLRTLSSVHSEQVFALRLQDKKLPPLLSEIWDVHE

Mus musculus [8] = test: Increase in liver triglyceride level in C57BL/6J mouse after 5 days at 100 mg/kg/day relative to control; type: functional
[9] = target: T2, Oxysterols receptor LXR-beta; remark: listed apart in the source
Mus musculus [10] = test: Decrease in plasma triglyceride level in C57BL/6J mouse after 5 days at 100 mg/kg/day relative to control; type: functional; design: scale not given: the % may be the effect or the level left
[11] = Liver concentration in C57BL/6J mouse after 5 days at 10 mg/kg/day; type: ADME, organism-based; settings: read-out: Drug uptake
[12] = Plasma concentration in C57BL/6J mouse after 5 days at 10 mg/kg/day; type: ADME, organism-based
Mus musculus [13] = test: Decrease in plasma triglyceride level in C57BL/6J mouse after 5 days at 10 mg/kg/day relative to control; type: functional; design: scale not given: the % may be the effect or the level left
Mus musculus [14] = test: Increase in plasma HDL-C level in C57BL/6J mouse after 5 days at 10 mg/kg/day relative to control; type: functional
Mus musculus [15] = test: Increase in liver triglyceride level in C57BL/6J mouse after 5 days at 10 mg/kg/day relative to control; type: functional

SMILES | IC50 [1] | EC50 [2] | further results
CCN(Cc1cccnc1)c1ccc(C(O)(C(F)(F)F)C(F)(F)F)cc1 | 2700 nM | 4300 nM | –
CCN(c1ccc(C(O)(C(F)(F)F)C(F)(F)F)cc1)C(C)(C(=O)N(C)C)c1ccccc1 (racemic) | 200 nM | 400 nM | –
CCN(c1ccc(C(O)(C(F)(F)F)C(F)(F)F)cc1Cl)C(CC)(C(=O)OC)c1ccccc1 (racemic) | 60 nM | 500 nM | –
CCN(c1ccc(C(O)(C(F)(F)F)C(F)(F)F)cc1)C(COCC(=O)N(C)C)c1ccccc1 (racemic) | 900 nM | 800 nM | –
CCN(Cc1cscn1)c1ccc(C(O)(C(F)(F)F)C(F)(F)F)cc1 | 600 nM | 3300 nM | –
CCN(Cc1ccccn1)c1ccc(C(O)(C(F)(F)F)C(F)(F)F)cc1 | 1500 nM | 700 nM | –
COC(=O)C1(c2ccccc2)CCCCN1c1ccc(C(O)(C(F)(F)F)C(F)(F)F)cc1 (racemic) | 60 nM | 90 nM | –
COC(=O)C1(c2ccccc2)CCCN1c1ccc(C(O)(C(F)(F)F)C(F)(F)F)cc1 (racemic) | 50 nM | 200 nM | –
CCN(Cc1nc(-c2cccc(C(F)(F)F)c2)oc1C)c1ccc(C(O)(C(F)(F)F)C(F)(F)F)cc1Cl | 6 nM | 100 nM | –
OC(c1ccc(N(Cc2ccccc2)CC(F)(F)F)cc1)(C(F)(F)F)C(F)(F)F | 70 nM | 900 nM | –
CCN(Cc1nc(-c2cccc(Cl)c2)oc1C)c1ccc(C(O)(C(F)(F)F)C(F)(F)F)cc1Cl | 2 nM | 300 nM | –
CCN(c1ccc(C(O)(C(F)(F)F)C(F)(F)F)cc1)C(COCc1ccccc1)c1ccccc1 (racemic) | 200 nM | 1900 nM | –
CCN(c1ccc(C(O)(C(F)(F)F)C(F)(F)F)cc1Cl)C(COc1ccc(C(=O)O)cc1)c1ccccc1 (racemic) | 100 nM | 3700 nM | –
CCN(c1ccc(C(O)(C(F)(F)F)C(F)(F)F)cc1)C(C(=O)N1CCOCC1)c1ccccc1 (racemic) | 5400 nM | 8500 nM | –
CCN(c1ccc(C(O)(C(F)(F)F)C(F)(F)F)cc1)C(C(=O)N(C)C)c1ccccc1 (racemic) | 13800 nM | 9300 nM | –
CCN(c1ccc(C(O)(C(F)(F)F)C(F)(F)F)cc1)C(COCC(=O)O)c1ccccc1 (racemic) | 61000 nM | 10000 nM | –
CCN(Cc1ccncc1)c1ccc(C(O)(C(F)(F)F)C(F)(F)F)cc1 | 1700 nM | 2100 nM | –
CCN(CCc1ccccc1)c1ccc(C(O)(C(F)(F)F)C(F)(F)F)cc1Cl | 6 nM | 800 nM | –
CCN(c1ccc(C(O)(C(F)(F)F)C(F)(F)F)cc1)C(COCCO)c1ccccc1 (racemic) | 12000 nM | > 40000 nM | –
OC(c1ccc(N(Cc2ccccc2)CC(F)(F)F)c(Cl)c1)(C(F)(F)F)C(F)(F)F | 1 nM | 100 nM | –

SMILES | IC50 [1] | EC50 [2] | further results
CCN(c1ccc(C(O)(C(F)(F)F)C(F)(F)F)cc1Cl)C(COc1ccc(CC(=O)O)cc1)c1ccccc1 (racemic) | 100 nM | 5500 nM | –
CCN(CCc1ccccc1)c1ccc(C(O)(C(F)(F)F)C(F)(F)F)cc1 | 120 nM | 1000 nM | –
CCN(c1ccc(C(O)(C(F)(F)F)C(F)(F)F)cc1)C(COCC(=O)OC)c1ccccc1 (racemic) | 600 nM | 2200 nM | –
CCN(c1ccc(C(O)(C(F)(F)F)C(F)(F)F)cc1)C(CC)(C(=O)OC)c1ccccc1 (racemic) | 50 nM | 300 nM | –
CCN(c1ccc(C(O)(C(F)(F)F)C(F)(F)F)cc1)C(COCC(=O)NC)c1ccccc1 (racemic) | 18000 nM | > 40000 nM | –
CCN(c1ccc(C(O)(C(F)(F)F)C(F)(F)F)cc1)C(C(=O)OC)c1ccccc1 (racemic) | 700 nM | 2300 nM | –
Cc1oc(-c2cccc(C(F)(F)F)c2)nc1CN(CC(F)(F)F)c1ccc(C(O)(C(F)(F)F)C(F)(F)F)cc1 | 13 nM | 700 nM | –
CCN(c1ccc(C(O)(C(F)(F)F)C(F)(F)F)cc1)C(C(=O)O)c1ccccc1 (racemic) | 5200 nM | 9400 nM | –
Cc1oc(-c2cccc(Cl)c2)nc1CN(CC(F)(F)F)c1ccc(C(O)(C(F)(F)F)C(F)(F)F)cc1 | 30 nM | 1000 nM | –
CCN(Cc1ccccc1)c1ccc(C(O)(C(F)(F)F)C(F)(F)F)cc1 | 50 nM | 1100 nM | –
CCN(c1ccc(C(O)(C(F)(F)F)C(F)(F)F)cc1Cl)C(COc1ccc(CCC(=O)OC)cc1)c1ccccc1 (racemic) | 100 nM | 1400 nM | –
CCN(Cc1ccccc1)c1ccc(C(O)(C(F)(F)F)C(F)(F)F)cc1Cl | 3 nM | 200 nM | concentration at 120 h [3]: 13000 ng/g; Activity (Mus musculus [4]): 23%; Activity (Mus musculus [5]): 7%; concentration at 120 h [6]: 3400 ng/mL; EC50 [7]: 80 nM; Activity (Mus musculus [8]): 28%; IC50 [9]: 3 nM
CCN(c1ccc(C(O)(C(F)(F)F)C(F)(F)F)cc1)C(C(=O)NC)c1ccccc1 (racemic) | 11200 nM | 10900 nM | –
CCN(c1ccc(C(O)(C(F)(F)F)C(F)(F)F)cc1)C(COC)c1ccccc1 (racemic) | 400 nM | 900 nM | –
CCN(c1ccc(C(O)(C(F)(F)F)C(F)(F)F)cc1Cl)C(COc1ccc(CC(=O)OC)cc1)c1ccccc1 (racemic) | 200 nM | 1100 nM | –
CCN(Cc1cscn1)c1ccc(C(O)(C(F)(F)F)C(F)(F)F)cc1Cl | 20 nM | 500 nM | –
CCN(c1ccc(C(O)(C(F)(F)F)C(F)(F)F)cc1Cl)C(COc1ccc(CCC(=O)O)cc1)c1ccccc1 (racemic) | 60 nM | 4500 nM | –
CCN(c1ccc(C(O)(C(F)(F)F)C(F)(F)F)cc1)C(C)(C(=O)OC)c1ccccc1 (racemic) | 50 nM | 100 nM | concentration at 120 h [3]: 6300 ng/g; Activity (Mus musculus [4]): 12%; Activity (Mus musculus [10]): 11%; concentration at 120 h [6]: 2300 ng/mL; EC50 [7]: 30 nM; Activity (Mus musculus [8]): 520%; IC50 [9]: 8 nM
CCN(Cc1nc(-c2cccc(C(F)(F)F)c2)oc1C)c1ccc(C(O)(C(F)(F)F)C(F)(F)F)cc1 | 6 nM | 200 nM | concentration at 120 h [11]: 8200 ng/g; concentration at 120 h [12]: 700 ng/mL; EC50 [7]: 60 nM; Activity (Mus musculus [13]): 12%; Activity (Mus musculus [14]): 35%; Activity (Mus musculus [15]): 70%; IC50 [9]: 3 nM
CCN(c1ccc(C(O)(C(F)(F)F)C(F)(F)F)cc1Cl)C(COc1ccc(C(=O)OC)cc1)c1ccccc1 (racemic) | 60 nM | 700 nM | –
